Results published in article PMC2873402, “Discovery of High-Affinity Protein Binding Ligands – Backwards” (PLoS ONE, 2010).

Tests used:
[1] = target: AKT1 (Homo sapiens, UniProt P31749); assay: AKT1 binding site mapping by crosslinking and MS; design: N-terminal vector leader of pEXP5-NT (6xHis + TEV site by own knowledge of the vector); made in house; host or cells: Expressway Mini Cell-Free Expression System (in vitro translation); settings: for region of AKT1 crosslinked: 10 µM peptide, 2.5 µM AKT1, 100 µM BS3-d0/d4 (1:1), trypsin, MALDI-TOF-MS; for likely binding site on AKT1: from relative intensity of fragments and proximity of lysines; for AKT1 lysine(s) likely cross-linked: surface-exposed lysines mapped on PDB 3CQU
From the text: As an orthogonal assessment of whether the peptides bind different sites on AKT1, each peptide was crosslinked to AKT1 in vitro using a commercially available set of deuterated / non-deuterated crosslinkers (BS^3-(d0/d4)). The crosslinkers chemically conjugate primary amines that are in close proximity to one another (11.4 Å) and the crosslinked complex is then subjected to enzymatic digestion and analysis by mass spectrometry. Crosslinked peptides are identified by the presence of a pair of ions that are separated by 4 mass units indicating crosslinking with both non-deuterated and deuterated crosslinkers. Peptide 1 has two possible crosslinking sites (N-terminus and K at position 3) and peptide 2 has one possible crosslinking site at the N-terminus. A 10 µM solution of each peptide was added to 2.5 µM AKT1 and incubated for 1 hour prior to the addition of a 100 µM solution of a 1∶1 mixture of crosslinkers. After crosslinking, the mixture was digested with trypsin and analyzed by MALDI-TOF-MS. […] The location of each AKT1 fragment was mapped onto a crystal structure of residues 139–480 of AKT1 (PDB #3CQU) (Figure 4C).
10 µM of peptide 1 and peptide 2 were individually incubated with 2.5 µM of recombinant AKT1 (produced in house) in PBS buffer (200 uL total volume) for one hour, after which an equimolar ratio of BS^3-d0∶BS^3-d4 (Thermo Scientific, Rockford, IL) crosslinker was added for a total crosslinker concentration of 100 µM. The same concentration of crosslinker was added to a 200 µL control sample containing only 2.5 µM AKT1. Crosslinking was performed for one hour. After crosslinking, free peptide and crosslinker were removed from the mixture with a 30 kDa spin filter and at the same time the buffer was exchanged with 100 mM ammonium bicarbonate pH 8.0. Proteomics grade trypsin (Sigma-Aldrich, St. Louis, MO) was added to all samples at a ratio of 1∶30 (mol∶mol) Trypsin∶AKT1 and incubated overnight at 37°C. Digested samples were lyophilized and reconstituted in 5 µL acetonitrile∶H2O (1∶1) containing 0.1% trifluoroacetic acid and spotted on a MALDI target plate along with ∝-cyano-4-hydroxycinnamic acid MALDI matrix. Mass spectra were obtained on an Ultraflex-III MALDI TOF-TOF (Bruker, Billerica, MA) and analyzed in FlexAnalysis (Bruker, Billerica, MA).

[2] = target: synbody variant in which the C-terminal Cys was replaced with a Lys-Biotin; assay: pull-down; IP: biotin synbody on streptavidin magnetic beads; ^35S-labeled AKT1 in the IVT mixture diluted from 41.5 nM to 80 pM (AKT1 about 3% of total protein); liquid scintillation counting; 1:1 fit in GraphPad Prism

Sequence of AKT1 (P31749 whole entry, the tested form may be a part): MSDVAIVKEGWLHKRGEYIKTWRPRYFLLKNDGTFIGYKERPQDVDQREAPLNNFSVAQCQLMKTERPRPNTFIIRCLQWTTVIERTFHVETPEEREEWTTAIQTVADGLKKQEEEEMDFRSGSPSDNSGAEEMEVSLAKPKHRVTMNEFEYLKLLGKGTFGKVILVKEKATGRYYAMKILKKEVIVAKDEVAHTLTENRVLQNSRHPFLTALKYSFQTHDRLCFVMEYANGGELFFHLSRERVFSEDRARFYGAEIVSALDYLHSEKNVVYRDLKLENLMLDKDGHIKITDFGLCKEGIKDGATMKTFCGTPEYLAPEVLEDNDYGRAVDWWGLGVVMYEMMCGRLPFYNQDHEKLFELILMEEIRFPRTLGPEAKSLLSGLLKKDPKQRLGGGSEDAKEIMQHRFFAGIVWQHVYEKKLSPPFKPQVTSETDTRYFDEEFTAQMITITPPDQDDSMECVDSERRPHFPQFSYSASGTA
Sequence of ^35S-labeled AKT1 produced by in vitro translation (P31749 whole entry): as the sequence (P31749 whole entry, the tested form may be a part) above

| Kd [2] [nM] | Substance | region of AKT1 crosslinked [1] | likely binding site on AKT1 [1] | AKT1 lysine(s) likely cross-linked [1] |
| --- | --- | --- | --- | --- |
|  | AHKVVPQRQIRHAYNRYGSG [peptide 1, 20-aa peptide arm of the synbody] | crosslinked to a region of AKT1 that spans the Protein Kinase (PK) and AGC Kinase domain | in a region of low homology between AKT1, AKT2, and AKT3 | ^419Lys |
| 4.9 | ^35S-labeled AKT1 produced by in vitro translation (from UniProt P31749 1-480) (natural protein) |  |  |  |
|  | FRGWAHIFFGPHVIYRGGSG [peptide 2, 20-aa peptide arm of the synbody] | crosslinked to multiple regions on AKT1 (Figure 4A, Figure 4B, Table S1), with the majority of crosslinking occurring in the PK domain | primary binding site for peptide 2 is likely on the PK domain and that a secondary binding site lies on the AGC domain | ^182Lys, ^276Lys, and ^481Lys |
